HELM strings list units from the 5' end as sugar, base in round brackets, then linkage (d deoxyribose, r ribose, m 2'-O-methyl, p phosphodiester). Strings are as the collection lists them; they lack the last nucleoside at the 3' end of the tested compound. [moe] = 2'-O-(2-methoxyethyl) (MOE); [sp] = phosphorothioate linkage; [m5C] = 5-methylcytosine

The target of this data set is APP. Briefly: mouse, dose not given. The conditions noted are these: ASO.
Turning to “RNA1{[moe](T)[sp].[moe]([m5C])p.[moe]([m5C])p.[moe](A)p.[moe](A)[sp].d(T)[sp].d(T)[sp].d(T)[sp].d(T)[sp].d(A)[sp].d(A)[sp].d([m5C])[sp].d(T)[sp].d(T)[sp].d(G)[sp].[moe]([m5C])p.[moe](A)p.[moe]([m5C])[sp].[moe]([m5C])}$$$$ (last 3' nucleoside missing)”, the 3 h FOB score came out at 0.5 score 0-7.

Substance “RNA1{[moe](G)[sp].[moe](A)p.[moe](A)p.[moe](G)p.[moe]([m5C])[sp].d(A)[sp].d(T)[sp].d(A)[sp].d(T)[sp].d(T)[sp].d([m5C])[sp].d([m5C])[sp].d(T)[sp].d([m5C])[sp].d(T)[sp].[moe](A)p.[moe](T)p.[moe]([m5C])[sp].[moe]([m5C])}$$$$ (last 3' nucleoside missing)” had a 3 h FOB score of 0.67 score 0-7. To “RNA1{[moe](G)[sp].[moe]([m5C])p.[moe]([m5C])p.[moe](T)p.[moe](T)[sp].d(A)[sp].d(T)[sp].d(T)[sp].d(A)[sp].d(T)[sp].d([m5C])[sp].d(T)[sp].d([m5C])[sp].d(A)[sp].d(A)[sp].[moe](A)p.[moe]([m5C])p.[moe](T)[sp].[moe]([m5C])}$$$$ (last 3' nucleoside missing)” belongs 0 score 0-7; to “RNA1{[moe]([m5C])[sp].[moe](A)p.[moe](G)p.[moe]([m5C])p.[moe]([m5C])[sp].d([m5C])[sp].d([m5C])[sp].d(A)[sp].d(A)[sp].d(A)[sp].d(A)[sp].d(G)[sp].d(A)[sp].d(A)[sp].d(T)[sp].[moe](G)p.[moe]([m5C])p.[moe]([m5C])[sp].[moe](A)}$$$$ (last 3' nucleoside missing)”, 0.5 score 0-7; to “RNA1{[moe](A)[sp].[moe](G)p.[moe]([m5C])p.[moe](A)p.[moe](T)[sp].d([m5C])[sp].d(T)[sp].d(T)[sp].d(T)[sp].d(T)[sp].d(A)[sp].d([m5C])[sp].d(T)[sp].d(A)[sp].d(T)[sp].[moe]([m5C])p.[moe](T)p.[moe](G)[sp].[moe]([m5C])}$$$$ (last 3' nucleoside missing)”, 0.67 score 0-7. In turn, “RNA1{[moe](A)[sp].[moe]([m5C])p.[moe](T)p.[moe]([m5C])p.[moe](A)[sp].d([m5C])[sp].d(A)[sp].d([m5C])[sp].d(A)[sp].d([m5C])[sp].d(T)[sp].d(G)[sp].d(T)[sp].d(T)[sp].d(T)[sp].[moe]([m5C])p.[moe](A)p.[moe](A)[sp].[moe](G)}$$$$ (last 3' nucleoside missing)” registered a 3 h FOB score of 2.67 score 0-7. The figure for “RNA1{[moe](T)[sp].[moe](G)p.[moe](T)p.[moe](G)p.[moe](A)[sp].d(T)[sp].d(T)[sp].d(T)[sp].d([m5C])[sp].d(A)[sp].d([m5C])[sp].d(T)[sp].d(A)[sp].d(A)[sp].d([m5C])[sp].[moe]([m5C])p.[moe](G)p.[moe](G)[sp].[moe]([m5C])}$$$$ (last 3' nucleoside missing)” is 1.25 score 0-7; for “RNA1{[moe](G)[sp].[moe](A)p.[moe]([m5C])p.[moe](A)p.[moe]([m5C])[sp].d(T)[sp].d(T)[sp].d(T)[sp].d(T)[sp].d(A)[sp].d(T)[sp].d([m5C])[sp].d(T)[sp].d(T)[sp].d(G)[sp].[moe]([m5C])p.[moe](A)p.[moe]([m5C])[sp].[moe](T)}$$$$ (last 3' nucleoside missing)” it is 2.33 score 0-7; for “RNA1{[moe](G)[sp].[moe]([m5C])p.[moe](A)p.[moe](T)p.[moe](T)[sp].d([m5C])[sp].d(A)[sp].d([m5C])[sp].d(A)[sp].d(A)[sp].d([m5C])[sp].d(A)[sp].d([m5C])[sp].d(A)[sp].d([m5C])[sp].[moe](A)p.[moe](T)p.[moe]([m5C])[sp].[moe]([m5C])}$$$$ (last 3' nucleoside missing)” it is 0.67 score 0-7. Take “RNA1{[moe](G)[sp].[moe](G)p.[moe]([m5C])p.[moe](A)p.[moe](T)[sp].d([m5C])[sp].d(A)[sp].d([m5C])[sp].d(T)[sp].d(T)[sp].d(A)[sp].d([m5C])[sp].d(A)[sp].d(A)[sp].d(A)[sp].[moe]([m5C])p.[moe](T)p.[moe]([m5C])[sp].[moe](A)}$$$$ (last 3' nucleoside missing)”: the 3 h FOB score came out at 0.375 score 0-7. “RNA1{[moe](T)[sp].[moe](T)p.[moe](G)p.[moe](G)p.[moe](A)[sp].d(T)[sp].d(T)[sp].d([m5C])[sp].d(A)[sp].d(T)[sp].d([m5C])[sp].d(T)[sp].d([m5C])[sp].d([m5C])[sp].d(A)[sp].[moe](T)p.[moe](A)p.[moe]([m5C])[sp].[moe](T)}$$$$ (last 3' nucleoside missing)”: the 3 h FOB score was determined as 0 score 0-7.

“RNA1{[moe](A)[sp].[moe]([m5C])p.[moe](G)p.[moe](G)p.[moe](A)[sp].d([m5C])[sp].d(T)[sp].d(T)[sp].d(T)[sp].d(T)[sp].d(T)[sp].d(T)[sp].d([m5C])[sp].d(T)[sp].d(T)[sp].[moe]([m5C])p.[moe](T)p.[moe](T)[sp].[moe](G)}$$$$ (last 3' nucleoside missing)” registered a 3 h FOB score of 0 score 0-7. The figure for “RNA1{[moe](T)[sp].[moe](G)p.[moe](G)p.[moe](T)p.[moe](A)[sp].d([m5C])[sp].d(T)[sp].d(A)[sp].d(T)[sp].d(T)[sp].d(T)[sp].d([m5C])[sp].d(T)[sp].d(A)[sp].d(A)[sp].[moe](G)p.[moe](G)p.[moe](A)[sp].[moe](A)}$$$$ (last 3' nucleoside missing)” is 0.33 score 0-7; for “RNA1{[moe]([m5C])[sp].[moe](A)p.[moe]([m5C])p.[moe]([m5C])p.[moe](T)[sp].d([m5C])[sp].d(A)[sp].d(G)[sp].d([m5C])[sp].d([m5C])[sp].d(A)[sp].d([m5C])[sp].d(T)[sp].d(T)[sp].d([m5C])[sp].[moe](T)p.[moe](T)p.[moe]([m5C])[sp].[moe]([m5C])}$$$$ (last 3' nucleoside missing)” it is 0.5 score 0-7; for “RNA1{[moe](G)[sp].[moe]([m5C])p.[moe](A)p.[moe](T)p.[moe]([m5C])[sp].d(A)[sp].d(G)[sp].d(G)[sp].d([m5C])[sp].d(T)[sp].d(A)[sp].d(A)[sp].d([m5C])[sp].d(A)[sp].d(A)[sp].[moe](G)p.[moe](T)p.[moe](T)[sp].[moe]([m5C])}$$$$ (last 3' nucleoside missing)” it is 4 score 0-7. To “RNA1{[moe]([m5C])[sp].[moe]([m5C])p.[moe](T)p.[moe](T)p.[moe]([m5C])[sp].d(T)[sp].d(T)[sp].d(A)[sp].d([m5C])[sp].d(A)[sp].d(A)[sp].d(T)[sp].d(T)[sp].d(A)[sp].d(T)[sp].[moe](G)p.[moe]([m5C])p.[moe](T)[sp].[moe]([m5C])}$$$$ (last 3' nucleoside missing)” belongs 1 score 0-7. To “RNA1{[moe](G)[sp].[moe](T)p.[moe]([m5C])p.[moe]([m5C])p.[moe](A)[sp].d(A)[sp].d(A)[sp].d(A)[sp].d([m5C])[sp].d(A)[sp].d([m5C])[sp].d(A)[sp].d(G)[sp].d(T)[sp].d(A)[sp].[moe]([m5C])p.[moe](A)p.[moe](A)[sp].[moe]([m5C])}$$$$ (last 3' nucleoside missing)” belongs 1.67 score 0-7.

For the origin of these results see the OligoGym collection.
